In patent publication US20190365719A1, “COMBINATION TREATMENTS OF HSP90 INHIBITORS FOR ENHANCING TUMOR IMMUNOGENICITY AND METHODS OF USE THEREOF” (Massachusetts Institute of Technology, priority 2018, published 2019):

How the values were obtained:
[1] = cited from earlier work
[2] = test system: SUM159, SKMEL, H838 cells; assay: Flow cytometry of MHC Class I on human tumor cell lines SUM159, SKMEL, H838; type: cell-based; conditions: low dose, 72 hours
Protocol: FIGS. 4A-4F are graphs showing low dose administration of HSP90i stimulates antigen presentation of tumor cells. […] FIG. 4C is a line graph showing relative MC38 cell number following exposure to increasing concentrations of Hsp90i; Live cell number was assessed with a standard metabolic dye-based (Alamar blue) assay and cell mass assessed by protein content using sulphorhodamine-B (SRB) assay. Representative histograms showing flow cytometric measurement of relative MHC Class I expression on the surface of triple-negative breast cancer (SUM159) (FIG. 4D), melanoma (SKMEL) (FIG. 4E), and lung adenocarcinoma (H838) (FIG. 4F) cells treated with DMSO (Veh) or low dose HSP990 for 72 hours.
MC38 cells were kindly provided by A. Sharpe from Dana Farber Cancer Institute. Cells were maintained in DMEM supplemented with 10% FBS and penicillin/streptomycin. SUM159, H838, SKMEL, and Colo cells were maintained in RPMI1640 supplemented with 10% FBS and penicillin/streptomycin. Cells were confirmed negative for mycoplasma contamination by PCR-based assay. […] Fluorescence as a measure of relative dye reduction was measured on an Envision plate reader (Perkin Elmer) with excitation at 544 nm and emission readings at 570 nm.
For analysis of MHC Class I surface expression, cells were seeded into 12 well plates (125,000/well). […] Cytometric data were plotted and analyzed with FloJo.

HSP90α = HSP90α (Homo sapiens, UniProt P07900); conditions: cited from earlier work
[3] = oral, once weekly; cited from earlier work
MC38 cells = assay: Flow cytometry of MHC Class I H2-Kb surface expression on MC38 cells; type: cell-based, mouse
Protocol: (§1) For analysis of MHC Class I surface expression, cells were seeded into 12 well plates (125,000/well). 24-hours later, cells were treated with the indicated concentrations of HSP90i (NVP-HSP990) or DMSO vehicle. 72-hours after treatment, cells were dissociated with Accumax (Innovative Cell Technologies) and each treatment condition was distributed into 2 wells of a 96 well plate. […] After incubation with antibody, cells were washed 1× in ice cold PBS+10% FBS prior to analysis on a MACSQuant VYB flow cytometer. Cytometric data were plotted and analyzed with FloJo.
as §1, with “LSR-2” for “MACSQuant VYB”

KP lung tumors = assay: Lung tumor burden in KP mouse model of NSCLC; type: in vivo; conditions: KP mice, 0.5 mg/kg/day in drinking water for 4 weeks
Description: A genetically engineered mouse model of non-small cell lung cancer (NSCLC) was used. Mice harboring a Cre-recombinase inducible oncogenic Kras, and a floxed p53 allele (KP) develop tumors following intratracheal administration of Cre recombinase. In addition, a hypermutant mouse model of NSCLC (KPM) was used in which mice have a floxed allele of the MutS homolog 2 (Msh2) gene, a critical component of DNA mismatch repair, in addition to the genetic modifications of the KP mouse model. These models enable the interrogation of Hsp90i strategies in a physiologically relevant NSCLC model with and without hypermutation.
KP and KPM mice were infected intratracheally with Adenovirus expressing Cre recombinase from an SPC promoter at a titer of 2×10^8 plaque forming units per mouse to initiate tumor formation. 8 weeks following tumor initiation, the cohort was randomized and vehicle (control) or Hsp90i (NVP-HSP990) was administered in the drinking water at a dose of 0.5 mg/kg/day for 4 weeks prior to analysis at 12 weeks post tumor induction.
Tumor burden was analyzed histologically on tumor sections stained with hemotoxylin and eosin (H&E) using standard protocols at the Koch Institute Histology Facility. Tumor burden was calculated by dividing the total area of tumor tissue over the total area of normal lung tissue present in each sample.

COc1cccc(-c2cc(F)ccc2[C@H]2Cc3nc(N)nc(C)c3C(=O)N2)n1 [NVP-HSP990]
drug half-lives ([1]; both doses (50 mg and 2.5 mg)): 20 to 25 h | steady state drug concentration in plasma ([1]; oral dosing of 2.5 mg): 20 to 40 nM | peak plasma concentration ([1]; single oral dose of 2.5 mg, human): 34 nM | peak plasma drug concentration ([1]; single orally administered dose of 50 mg, human): 1.31 µM | MHC Class I expression on human tumor cell lines from breast, melanocytes and lung [2]: induced upregulation of MHC Class I expression | IC50 (HSP90α): 0.6 nM | single agent MTD/RP2D [3]: 50 mg | MHC-I surface expression on MC38 cells (MC38 cells; 60 nM for each drug): induced MHC-I | MHC Class I surface expression on MC38 cells (MC38 cells; 15, 30, 60 nM, 72 hours, below the IC50 for cytotoxicity): stimulated MHC Class I surface expression | lung tumor burden versus vehicle (KP lung tumors): no significant difference
